These results are taken from patent US20070191372A1, “Dna-targeted benzotriazine 1,4-dioxides and their use in cancer therapy” (Auckland Uniservices Limited, priority 2002, published 2007).

In general, melting point refers to the temperature, or range, at which the solid turns liquid. What is called IC50 is the midpoint of a concentration-inhibition curve.

The subject of one data set is murine SCCVII. Briefly: Clonogenic assay under aerobic and hypoxic conditions, SCCVII. The settings on record: SCVIII cells; for IC90: Mus musculus, 1 h, hypoxic, 60 min drug exposure, SN (hypoxic), read-out: C10 hypoxic; for HCR: ratio of C10 under aerobic and hypoxic conditions; for RHT: ratio of hypoxic TPZ C10 to hypoxic compound C10. It counts as cell-based. As to the method:
Evaluation of the Cytotoxicity of Compounds by Clonogenic Assay Under Aerobic and Hypoxic Conditions.
Compounds representative of the invention were evaluated under both aerobic and hypoxic conditions in clonogenic assays, using three cell lines: human colon carcinoma HT-29, murine SCCVII, and human lung adenocarcinoma LXFL. Clonogenic survival was determined using aerobic and hypoxic SCCVII cell suspensions. Drug exposures were performed using continuously stirred and gassed single cell suspensions (10^6 cells/mL) at 37° C., equilibrated with 5% CO2 in air or N2 for 60 min before drug addition. After a 60 min drug exposure cells were washed by centrifugation and plated to determine colony formation Cytotoxicity was measured as the concentration required to reduce plating efficiency to 10% of controls (C10). The hypoxic cytotoxicity ratio (HCR) was determined as the ratio of the C10 values under aerobic and hypoxic conditions. The relative hypoxic toxicity (RHT) was determined as the ratio of hypoxic TPZ C10 to hypoxic BTO C10. Abbreviations used in Table 2 are:
C10=The concentration of drug (in micromolar) to reduce viable cell numbers to 10% of those of control cell cultures grown under the same conditions but not exposed to drug
(§1) RHT=Relative hypoxic toxicity is defined as the ratio of concentrations of Tirapazamine/test compound to give equal cell killing under hypoxic conditions.
HCR=Hypoxic cytotoxicity ratio is defined as the ratio of drug concentrations under aerobic and hypoxic condition to produce equal cell survival (10%) determined by clonogenic assay

The test system of data set [1] is human colon carcinoma HT-29. Briefly: Proliferation assay (IC50) under aerobic and hypoxic conditions, HT-29. It counts as cell-based. The settings on record: for RHT: HT-29, ratio Tirapazamine/test compound under hypoxic conditions; for HCR: HT-29, ratio of IC50 under aerobic and hypoxic conditions; for IC50: Homo sapiens, HT-29, hypoxic (anoxia <0.001% O2), 4 h exposure. The procedure: (§2) Evaluation of the Cytotoxicity of Compounds by Proliferation Assay (IC50) Under Aerobic and Hypoxic Conditions.
(§3) Compounds representative of the invention were evaluated under both aerobic and hypoxic conditions in a proliferation assay (IC50), using two cell lines: human colon carcinoma HT-29, and human cervical carcinoma SiHa.
(§4) Drug exposures were performed in 96-well plates (Nunc) using either a 37° C. humidified incubator (20% O2, 5% CO2) or in the incubator compartment (37° C.) of an anaerobic chamber (Shell Lab) where palladium catalyst scrubbed gas (90% N2, 5% H2, 5% CO2) ensures severe anoxia (<0.001% O2). For each experiment, compounds were simultaneously tested under both oxic and hypoxic conditions against the HT-29 cell line and included TPZ as an independent internal control at the front and back of the assay (n=2). Final data was pooled from a series of seven independent experiments and is calculated using inter-experimental means. In all cases, 8-methyl-5-nitroquinoline was used as a second internal control to confirm that strict hypoxia was present during the experiment. (Siim et al. Br. J. Cancer 1994, 70, 596-603). Cell cultures were grown in αMEM (Gibco) containing 5% heat inactivated FCS and maintained in exponential growth phase. For each individual experiment an appropriate number of cells were seeded (HT-29=1000) into wells in αMEM÷10% FCS+10 mM added glucose+100 μM 2′-deoxycytidine (2′dCyd), and allowed to attach for 3 h. High glucose (final concentration 17 mM) and the presence of 2′-dCyd minimize hypoxia-induced cell cycle arrest. Replicates were then exposed to BTOs, using 2-fold serial dilutions in triplicate, for a further 4 h. Subsequently cells were washed free of compound using complete media (without glucose/2′-dCyd) and allowed to grow for 5 (oxic) or 6 (anoxic) days. Plates were stained as described previously (Wilson et al., J. Med. Chem. 1989, 32, 31-38) and IC50 values determined.
(§5) IC50=The concentration of drug (in micromolar) to reduce viable cell numbers to 50% of those of control cell cultures grown under the same conditions but not exposed to drug
as §1
(§6) HCR=Hypoxic cytotoxicity ratio is defined as the ratio of drug concentrations under aerobic and hypoxic condition to produce equal cell survival (50%) determined by proliferation assay

Data set [2] deals with human cervical carcinoma SiHa. The data set is described as follows: Proliferation assay (IC50) under aerobic and hypoxic conditions, SiHa. It counts as cell-based. The settings on record: for IC50: Homo sapiens, hypoxic, 4 h exposure; for RHT: ratio Tirapazamine/test compound under hypoxic conditions; for HCR: ratio of IC50 under aerobic and hypoxic conditions. As to the method:
as §2, §3, §4, §5, §1, §6

Regarding `Cc1cccc2nc3c(C(=O)NCCCN(C)CCCNc4n[n+]([O-])c5ccccc5[n+]4[O-])cccc3nc12` [Compound 45, N-{3-[{3-[(1,4-Dioxido-1,2,4-benzotriazin-3-yl)amino]propyl}(methyl)amino]-propyl}-9-methyl-4-phenazinecarboxamide], the melting point was 138 to 142 °C. Further, in the data set with murine SCCVII, the IC90 was determined as 310 nM, the HCR is 23.9 and the RHT is given as 29. Besides, in data set [1], the RHT was found to be 321, the HCR is recorded as 31 and the IC50 was 18 nM.
`Cc1cccc2cc3cccc(C(=O)NCCNCCNc4n[n+]([O-])c5ccccc5[n+]4[O-])c3nc12` [Compound 103, N-[2-({2-[(1,4-Dioxido-1,2,4-benzotriazin-3-yl)amino]ethyl}amino)ethyl]-5-methyl-4-acridinecarboxamide]: the melting point lay in the range of 135 to 140 °C. Besides, in data set [2], it took 10 nM to reach half-maximal inhibition (IC50), the RHT is on record as 309 and the HCR was 118. Moreover, in data set [1], the RHT is 357, the HCR is recorded as 83 and the IC50 amounted to 35 nM.
Regarding `Cc1ccc2c(c1)[n+]([O-])nc(NCCCN(C)CCCNC(=O)c1cccc3cc4ccccc4nc13)[n+]2[O-]` [Compound 74, N-[3-(Methyl{3-[(7-methyl-1,4-dioxido-1,2,4-benzotriazin-3-yl)amino]propyl}amino)propyl]-4-acridinecarboxamide], the melting point fell in the range of 166 to 168 °C. Further, in data set [1], the RHT came out at 44.7, the HCR was determined as 95 and the IC50 turned out to be 130 nM.
As to `Cc1ccc2c(c1)[n+]([O-])c(NCCCN(C)CCCNC(=O)c1cccc3ccc(-c4ccncc4)nc13)n[n+]2[O-]` [Compound 86, N-[3-(Methyl{3-[(6-methyl-1,4-dioxido-1,2,4-benzotriazin-3-yl)amino]propyl}amino)propyl]-2-(4-pyridinyl)-8-quinolinecarboxamide], the melting point was in the range of 178 to 180 °C. Besides, in data set [2], inhibition was half-maximal at 105 nM (IC50), the RHT is reported as 35 and the HCR came out at 136. In data set [1], the RHT is on record as 66, the HCR is listed as 168 and 225 nM corresponded to half-maximal inhibition (IC50).
As for `Cc1ccc2c(c1)[n+]([O-])nc(NCCCN(C)CCCNC(=O)c1cccc3ccc(-c4ccncc4)nc13)[n+]2[O-]` [Compound 75, N-[3-(Methyl{3-[(7-methyl-1,4-dioxido-1,2,4-benzotriazin-3-yl)amino]propyl}amino)propyl]-2-(4-pyridinyl)-8-quinolinecarboxamide], the melting point was in the range of 178 to 180 °C. Besides, in data set [2], half-maximal inhibition (IC50) was put at 70 nM, the RHT was found to be 53 and the HCR came to 110. Besides, in data set [1], the RHT was found to be 29, the HCR was 92 and inhibition was half-maximal at 200 nM (IC50).
`Cl.O=C(NCCCNCCCNc1n[n+]([O-])c2ccccc2[n+]1[O-])c1cccc2nc3ccccc3nc12` [Compound 31, N-[3-({3-[(1,4-dioxido-1,2,4-benzotriazin-3-yl)amino]propyl}amino)propyl]-1-phenazinecarboxamide hydrochloride] registered a melting point of 163 to 169 °C. Also, in data set [1], the RHT is listed as 163, the HCR is 5.3 and the IC50 was determined as 356 nM.
For the molecule `Cc1ccc2c(c1)[n+]([O-])nc(NCCCN(C)CCCNC(=O)c1cccc3nc4ccccc4nc13)[n+]2[O-]` [Compound 76, N-[3-(Methyl{3-[(7-methyl-1,4-dioxido-1,2,4-benzotriazin-3-yl)amino]propyl}amino)propyl]-1-phenazinecarboxamide], the melting point fell in the range of 118 to 122 °C.
Molecule `Cc1cccc2cc3cccc(C(=O)NCCN(C)CCNc4n[n+]([O-])c5ccccc5[n+]4[O-])c3nc12` [Compound 99, N-{2-[{2-[(1,4-Dioxido-1,2,4-benzotriazin-3-yl)amino]ethyl}(methyl)amino]ethyl}-5-methyl-4-acridinecarboxamide] returned a melting point of 148 to 152 °C. Besides, in the data set with murine SCCVII, the IC90 is 290 nM, the HCR is on record as 176 and the RHT came to 17.2. Further, in data set [1], the RHT came to 14; the HCR was found to be 25; the midpoint of inhibition, the IC50, lay at 410 nM.
In turn, `O=C(NCCOCCNc1n[n+]([O-])c2ccccc2[n+]1[O-])c1cccc2ccc(-c3ccncc3)nc12` [Compound 26, N-(2-{2-[(1,4-Dioxido-1,2,4-benzotriazin-3-yl)amino]ethoxy}ethyl)-2-(4-pyridinyl)-8-quinolinecarboxamide] gave a melting point of 128 to 130 °C.
Same read-out and setting: in the case of `O=C(NCCCCCCNc1n[n+]([O-])c2ccccc2[n+]1[O-])c1ccnc2ccccc12` [Compound 13, N-{6-[(1,4-Dioxido-1,2,4-benzotriazin-3-yl)amino]hexyl}-4-quinolinecarboxamide] it was 196 to 198 °C; in that of `Cc1ccc2c(c1)[n+]([O-])nc(NCCCNCCCNC(=O)c1cccc3nc4cccc(C)c4nc13)[n+]2[O-]` [Compound 77, 9-Methyl-N-[3-({3-[(7-methyl-1,4-dioxido-1,2,4-benzotriazin-3-yl)amino]propyl}amino)propyl]-1-phenazinecarboxamide], 119 to 122 °C.
On the same count and under the same terms, next, `CN(C)CCCC(=O)c1cc(NC(=O)c2cc(NC(=O)CCCNc3n[n+]([O-])c4ccccc4[n+]3[O-])cn2C)cn1C` [Compound 112, N-{5-[4-(Dimethylamino)butanoyl]-1-methyl-1H-pyrrol-3-yl}-4-({4-[(1,4-dioxido-1,2,4-benzotriazin-3-yl)amino]butanoyl}amino)-1-methyl-1H-pyrrole-2-carboxamide]: 140 to 145 °C; `Cc1cccc2nc3cccc(C(=O)NCCCNCCCNc4n[n+]([O-])c5ccccc5[n+]4[O-])c3nc12.Cl`: 183 to 186 °C.
Take `O=C(NCCNCCNc1n[n+]([O-])c2ccccc2[n+]1[O-])c1cccc2ccc(-c3ccncc3)nc12` [Compound 102, N-[2-({2-[(1,4-Dioxido-1,2,4-benzotriazin-3-yl)amino]ethyl}amino)ethyl]-2-(4-pyridinyl)-8-quinolinecarboxamide]: the melting point lay within 160 to 165 °C. Moreover, in data set [2], 160 nM corresponded to half-maximal inhibition (IC50), the RHT is on record as 23 and the HCR is 53. In addition, in data set [1], the RHT is 12, the HCR is 54 and the IC50 is 490 nM.
For the molecule `Cc1ccc2c(c1)[n+]([O-])c(NCCCNCCCNC(=O)c1cccc3nc4cccc(C)c4nc13)n[n+]2[O-]` [Compound 88, 9-Methyl-N-[3-({3-[(6-methyl-1,4-dioxido-1,2,4-benzotriazin-3-yl)amino]propyl}amino)propyl]-1-phenazinecarboxamide], the melting point was 80 to 83 °C.
On to `Cc1cccc2nc3cccc(C(=O)NCCN(C)CCNc4n[n+]([O-])c5ccccc5[n+]4[O-])c3nc12` [Compound 98, N-{2-[{2-[(1,4-Dioxido-1,2,4-benzotriazin-3-yl)amino]ethyl}(methyl)amino]ethyl}-9-methyl-1-phenazinecarboxamide], for which the melting point is 161 to 163 °C. In data set [2], the IC50 is 75 nM, the RHT is listed as 63 and the HCR turned out to be 30. For the same molecule, in data set [1], the RHT is 114, the HCR is on record as 45 and the IC50 amounted to 135 nM.
